Results on 34 molecules are retold here after PubChem BioAssay (NCI).

SMILES strings stand for the structures.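 Values below derive from 48-hour exposures of cells grown in 96-well plates, with endpoints linearly interpolated between the two concentrations bracketing the appropriate inhibition level. GI50 is the concentration that inhibits growth by half. TGI denotes the concentration required for complete inhibition of growth.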 Where a SMILES comes first, the peptide text is derived from it. [ ]: non-standard residue; d: D form. pGlu = O=C1CC[CH](C(=O)O)N1

For this experiment, the system named is MDA-MB-468 breast. In words: growth of human tumour cells (NCI), 48 h.

In the case of `CN(CCO)CC[C@H](CSc1ccccc1)Nc1ccc(S(=O)(=O)NC(=O)c2ccc(N3CCC([C@@H](O)c4ccccc4-c4ccc(Cl)cc4)CC3)cc2)cc1S(=O)(=O)C(F)(F)F`, the GI50 is 1870 nM and the TGI is 5.19 µM.

For the molecule `CCOC(=O)Nc1ccc2c(c1)/C(=N\NC(N)=S)c1ccccc1-2`, the GI50 was 3460 nM and the TGI turned out to be 25 µM.

`Oc1c(-c2nnc(-c3ccccc3Cl)o2)sc2nnc(-c3ccccc3)c(-c3ccccc3)c12`: the GI50 was 5110 nM and the TGI is 27.8 µM.

Regarding `Clc1nc(Cl)c2ncn(CC3(Cn4cnc5c(Cl)nc(Cl)nc54)COC3)c2n1`, the GI50 was 192 nM and the TGI was 0.408 µM.

For `CCNC(=O)C1CCCN1C(=O)C(CCCN=C(N)N)NC(=O)C(CC(C)C)NC(=O)C(CC(C)C)NC(=O)C(Cc1ccc(O)cc1)NC(=O)C(CO)NC(=O)C(Cc1c[nH]c2ccccc12)NC(=O)C(Cc1cnc[nH]1)NC(=O)C1CCC(=O)N1` (stereo not drawn) ([pGlu]HWSYLLRP-NHEt; configuration not given here), the GI50 was more than 100000 nM and the TGI was more than 100 µM.

With `COc1ncnc2c(-c3ccccc3)cn(COCc3ccccc3)c12`, the GI50 was 1740 nM and the TGI is 6.82 µM.

In the case of `COc1cccc(N2CCN(CC(=O)N3CCN(c4nnc(-c5ccc(Cl)cc5)c(-c5ccc(Cl)cc5)n4)CC3)CC2)c1`, the GI50 is 22500 nM and the TGI was more than 100 µM.

Take `IP(CCCSc1n(Cc2ccc3ccccc3c2)c(-c2ccccc2)c(-c2ccccc2)[n+]1Cc1ccc2ccccc2c1)(c1ccccc1)(c1ccccc1)c1ccccc1`: the GI50 is 2250 nM and the TGI stood at 5.97 µM.

In the case of `N#Cc1ccc(OCc2nc(N)nc(N)c2-c2ccc(Cl)c(Cl)c2)cc1`, the GI50 was 1530 nM and the TGI turned out to be 53.9 µM.

As to `CCN(Cc1ccc(Cl)cc1)c1ccc(CO)c(Cl)c1`, the GI50 was 20 nM and the TGI turned out to be 0.0626 µM.

Take `Fc1ccc(C2CC(c3cccc(Nc4ccncc4)c3)=NN2c2ccc(Cl)cc2)cc1` (stereo not drawn): the GI50 was 1420 nM and the TGI is 2.93 µM.

On to `C/C=C(\C)C(=O)NC1=CC[C@@]2(C)C(=CCC3C2CC[C@@]2(C)C3CC[C@@H]2C(C)N(C)C)C1=O` (stereo partly drawn), for which the GI50 was 2000 nM and the TGI worked out at 9.56 µM.

For `ClCc1cccc2c(CCl)cccc12`, the GI50 is 1120 nM and the TGI was found to be 3.05 µM.

Consider `O=C(CCCCCCNC(=O)c1cnc(N(c2ccccc2)c2ccccc2)nc1)NO`, for which the GI50 was 1220 nM and the TGI came out at 10.2 µM.

Take `Cc1cccc(/C=C/c2c(C(=O)/C=C/c3ccccc3)c(C)nc3ccccc23)c1`: the GI50 is 1900 nM and the TGI was determined as 3.79 µM.

Regarding `CCN(Cc1cc(Nc2nc(C)cn3c(-c4cn[nH]c4)cnc23)sn1)C(C)(C)CO`, the GI50 is less than 12.3 nM and the TGI was determined as 0.233 µM.

Turning to `O=c1[nH]c(=O)c2cn[nH]c2[nH]1`, the GI50 is more than 100000 nM and the TGI is more than 100 µM.

For `C=CCN=c1sc2c(n1NC(=O)c1cc3ccc1CCc1ccc(cc1)CC3)C(=O)c1ccccc1C2=O`, the GI50 is 2280 nM and the TGI worked out at 5.72 µM.

For the molecule `COc1cc(/C=C\c2cc(OC)c(OC)c(OC)c2)cc(NC(=O)/C=C/c2cc(OC)c(OC)c(OC)c2)c1OC`, the GI50 is 1990 nM and the TGI was more than 100 µM.

In the case of `CCCCCCCCNc1cc2c3c(c1)CCCN3CCC2`, the GI50 was 1540 nM and the TGI worked out at 5.31 µM.

For the molecule `O=C(Nc1cc(Cl)cc(Cl)c1)Nc1nc2ccc([N+](=O)[O-])cc2s1`, the GI50 is 1000 nM and the TGI turned out to be 4.22 µM.

For the molecule `O=C(Nc1cccc(-c2nc(-c3ccc(NC(=O)c4cccnc4)cc3Cl)no2)c1)Nc1ccc(NC(=O)C2CC2)c(C(F)(F)F)c1`, the GI50 was 193 nM and the TGI was 0.691 µM.

`COc1ccc(C(=S)N2CCN(c3cccc(C)c3)CC2)cc1OC`: the GI50 was 2650 nM and the TGI is more than 100 µM.

Take `O=C(Oc1cccc(F)c1OC(=O)c1cccc(O)c1)c1cccc(O)c1`: the GI50 is 18200 nM and the TGI came to 55.2 µM.

In the case of `COc1ccc2sc(NC(=O)CCCCCCNC(=O)C(O)(O)C(F)(F)F)nc2c1`, the GI50 is 665 nM and the TGI was found to be 1.81 µM.

On to `C=C1C(=O)O[C@H]2[C@H]1CC/C(COC(=O)CSCSCC(=O)OC/C1=C/CC[C@@]3(C)O[C@H]3[C@H]3OC(=O)C(=C)[C@@H]3CC1)=C\CC[C@@]1(C)O[C@@H]21`, for which the GI50 was 1070 nM and the TGI turned out to be 2.7 µM.

As to `CCN1C(=O)N(CC)C2C1NN=c1s/c(=C\c3cccc(F)c3)c(=O)n12` (stereo not drawn), the GI50 is 183 nM and the TGI was more than 100 µM.

In the case of `O=C(c1ccccc1)c1ccccc1-c1ccccc1`, the GI50 was 768 nM and the TGI stood at 3.7 µM.

Turning to `O=c1[nH]nnc2c1ncn2C1OC(CO)C(O)C1O` (stereo not drawn), the GI50 was 3360 nM and the TGI is more than 100 µM.

For `C[C@]12CC[C@@H]3c4ccc(OC(=O)N(CCCl)CCCl)cc4CC[C@H]3[C@@H]1CC[C@@H]2O`, the GI50 was 1690 nM and the TGI came to 4.21 µM.

Consider `C[C@H](NC(=O)[C@@H](C)N)[C@H](Oc1ccc2c(cnn2-c2ccc(F)cc2)c1)c1ccc2c(c1)OCCO2`, for which the GI50 was 2120 nM and the TGI is 4.05 µM.

`C=C1C(=O)O[C@H]2[C@H]1CC/C(CNC(=O)/C=C/c1cc(OC)c(OC)c(OC)c1)=C\CC[C@@]1(C)O[C@@H]21`: the GI50 is 220 nM and the TGI stood at 1.06 µM.

Regarding `COc1ccc(-c2nn(-c3cccc(Cl)c3)cc2-c2cc(-c3cccs3)[nH]c(=S)n2)cc1`, the GI50 was 2570 nM and the TGI is 9.91 µM.

As for `CCOC(=O)c1c(C)nc2c(c1N)CC(=O)N2Cc1ccc(OC)cc1`, the GI50 is 27300 nM and the TGI was more than 100 µM.
